Drawing on a melting point compilation (Tetko et al.; mined from patent text by program, amines drawn as free bases though some values may be those of a salt), this text covers melting point for 63 compounds.

On to `CC1(CCN2C(=O)c3cccc([N+](=O)[O-])c3C2=O)OCCO1`, for which the melting point – broadly, the temperature, or range, at which the solid turns liquid – was 90 °C. The result for `NC(=O)C(c1ccccc1)(c1ccccc1)C1CCN(C2CCCCC2)C1` (stereo not drawn) reads 119 to 121 °C; that for `Cc1cc(O)c2cc(C)c(-c3ccc(Cl)cc3Cl)n2n1`, 234 to 237 °C. The value for `OC(c1cnc2c(cnn2-c2ccccc2)c1)(c1c[nH]c2ncccc12)C(F)(F)F` (stereo not drawn) was 137 to 141 °C.

`NC(N)=Nc1nc(-c2cccc(CNC=O)n2)cs1`: the melting point was in the range of 192 to 193 °C.

`CN(C)C1(c2cccc(F)c2)CCC2(CC1)NCCc1c2[nH]c2ccccc12` (stereo not drawn) gave a melting point of 220 to 225 °C. `CCCOCCOc1ccc(-c2ccc3c(c2)C=C(C(=O)O)CCN3CCCOC)cc1` showed a melting point of 114 to 115 °C. Take `O=C(O)CCCCCCC=C(c1ccccc1)c1ccccc1`: the melting point fell in the range of 77.5 to 78.5 °C. In turn, `FC(F)(F)c1cc(Cl)c(-n2cnc(I)n2)c(Cl)c1` gave a melting point of 130 to 132 °C. As to `CC(C)(C)c1cc(CCC(N)=O)cc(-n2nc3ccc(S(=O)(=O)c4ccccc4)cc3n2)c1O`, the melting point lay within 144 to 145 °C.

In turn, `NC(=O)c1sc2c(Cl)cccc2c1Cl` returned a melting point of 225 to 229 °C. With `Cc1c(Br)cccc1NS(=O)(=O)c1cc(S(=O)(=O)Nc2cccc(Br)c2C)c2ccccc2c1O`, the melting point was in the range of 246 to 248 °C. The value for `CN(C)C(=C[N+](=O)[O-])NCc1ccc(Cl)cc1` was 133 to 135 °C. The value for `O=C(NC(CN1CCC(=C2c3ccccc3CCc3ccccc32)CC1)C(=O)O)OCc1ccccc1` (stereo not drawn) was 150 to 152 °C.

Turning to `COc1cc(-c2nc3ccc(O)cc3n2Cc2ccccc2Br)cc(OC)c1OC`, the melting point amounted to 208 °C. The result for `CN1CCc2cccc3c2C1Cc1ccc(O)c(O)c1-3` (stereo not drawn) reads 158 to 160 °C. Regarding `CCCc1c(C(=O)CCl)c2ccc(C(=O)OC)cc2n1Cc1ccccc1Cl`, the melting point was 143 to 145 °C.

The compound `CC(C)(C)N(O)Cc1ccc(CN(O)C(C)(C)C)cc1` registered a melting point of 137 to 138 °C. The value for `O=[N+]([O-])c1ccc(S(=O)(=O)c2cc(Br)nc(Br)c2)cc1` was 204 to 206 °C; that for `CC(C)c1ccc(N(Cc2ccc(N(C)C)cc2)C(=O)C2CCCc3c(O)ccc(F)c32)cc1` (stereo not drawn) was 209 °C. As for `CCOc1cc(-c2cc(C(F)(F)F)n3cnc(-c4ccnc(C)c4)c3n2)ccc1C(F)(F)F`, the melting point came to 177 °C. The value for `CNC(=O)c1cccnc1N` was 140 to 142 °C; that for `CN(CCc1ccc([N+](=O)[O-])cc1)Cc1ccc2cc([N+](=O)[O-])ccc2n1` was 104 to 105 °C. The value for `CCc1ccc(-c2c(Cl)c(CCl)nc3sc4c(c23)CCN(C(=O)OCc2ccccc2)C4)cc1` was 126 to 128 °C; that for `CC#CCOc1ccc(OCCC(=O)O)cc1` was 88 to 92 °C; that for `CC(=O)OC1CC2=CC=C3C4CCC(C(C)CCCC(C)C)C4(C)CCC3C2(C)C(OC(C)=O)C1` (stereo not drawn) was 113 to 114 °C.

`CC(=O)OCC1CCn2c(c(C3=C(c4ccccc4Cl)C(=O)OC3=O)c3ccccc32)C1` (stereo not drawn) came in with a melting point of 168 to 171 °C. The result for `CNc1nc(Cl)nc2c1ncn2C1OC(CO)C(O)C1O` (stereo not drawn) reads 224 to 225 °C. `CC(C)(C)OC(=O)NC1CCCCc2cc(OCC3CCCCC3)ccc21` (stereo not drawn) had a melting point of 125 to 126 °C. The value for `COc1ccc(N)c(CS(=O)(=O)c2ccccc2)c1` was 110 to 111 °C.

`CC1=C(N2CC2)C(=O)c2c([nH]c(C)c2C)C1=O` registered a melting point of 251 to 253 °C.

Consider `Cn1c(-c2ccccc2F)nnc1S(C)=O` (stereo not drawn), for which the melting point lay in the range of 95 to 97 °C. Compound `CNC(=O)[C@@H](C[C@H](O)[C@H](CC1CCCCC1)NC(=O)[C@H](Cc1cscn1)NC(=O)[C@@H](CC(=O)N1CCOCC1)Cc1ccccc1)C(C)C` gave a melting point of 83 to 86 °C. Take `C=CC(=O)O[C@H]1CC[C@H](c2ccccc2)CC1`: the melting point was found to be 67.3 °C.

`COCc1cc(N2CCOCC2)ncn1` registered a melting point of 56 °C. The result for `O=C(Nc1ccccc1NS(=O)(=O)c1ccc([N+](=O)[O-])cc1)c1ccc(F)cc1` reads 265 to 266 °C; that for `CCCCNc1ccc2cc(Cl)cnc2c1C#N`, 89 °C; that for `Nc1cccnc1Nc1ccccc1C(=O)c1cccc(F)c1`, 135 to 137 °C. Compound `Cc1nc2ccccc2n1CCCNCC(O)COc1ccc(CC(N)=O)cc1` (stereo not drawn) showed a melting point of 146 to 149 °C. With `Cc1ccc(C)n1-c1c(Cl)cc(C(F)(F)F)cc1Cl`, the melting point is 63 °C. As to `COc1ccc(Sc2ccccc2C(C)C)cc1`, the melting point fell in the range of 63 to 65 °C.

The compound `CC(C)(C)c1cc(SCc2cccc(-c3nnn[nH]3)c2)cc(C(C)(C)C)c1O` returned a melting point of 177 to 178 °C. Take `CCCCc1nn2cc(C)nc2n1Cc1ccc(-c2ccccc2-c2nnn[nH]2)cc1`: the melting point was 124 to 125 °C. Compound `O=C1Nc2ccc(F)cc2C1CCCCN1CCN(c2ccccn2)CC1` (stereo not drawn) displayed a melting point of 132 to 134 °C. The value for `Oc1ncnc2[nH]c(-c3ccc4ccccc4c3)cc12` was above 300 °C; that for `CONC(=O)c1cccc(-c2nc3ccccc3c(=O)o2)c1` was 223 to 226 °C. The compound `Cc1oc(-c2ccccc2)nc1COc1ccc2cc(CC3OC(=O)NC3=O)oc2c1` (stereo not drawn) had a melting point of 172 to 173 °C.

`COc1ccc(COc2c(C)c(C)c3c(c2C)C(c2ccc(N(C)C)cc2)C(C)(C)O3)cc1` (stereo not drawn): the melting point was in the range of 105 to 107 °C.

In turn, `CS(=O)(=O)Nc1cc(NC(=N)c2ccccc2)cc(NC(=O)/C=C/c2ccccc2C(F)(F)F)c1` came in with a melting point of 150 to 155 °C. The result for `O=Cc1nn(-c2ccc(Cl)cc2)c2c1CCCC2` reads 117 to 118 °C; that for `CCCCCC(=O)n1nc(-c2cc(C(C)(C)C)c(O)c(C(C)(C)C)c2)c2cccnc21`, 112 to 114 °C. The value for `CCCCc1nc(=O)n2nc(-c3ccc(F)cc3)cc2[nH]1` was 238 °C; that for `Cn1ncnc1COc1nc2c(cnn2-c2ccccc2)cc1C(C)(C)C` was 143 to 145 °C; that for `Cc1ccc(S(=O)(=O)N[C@@H](C)C(=O)Oc2c[nH]c(-c3ccccc3)c2)cc1` was 154 to 155 °C. The result for `CCOC(=O)Cn1cccc(NS(=O)(=O)Cc2ccccc2)c1=O` reads 48 to 49 °C. `COC(=O)C(F)[C@@H]1[C@H]2O[C@H]2C[C@H]1O` (stereo partly drawn) gave a melting point of 31 to 33 °C. The value for `CCOC(=O)C1=CC(=O)N=N1` was 235 to 238 °C; that for `COc1ccc(/C=C/C(=O)N2CC(CCl)c3c2cc(O)c2ncccc32)cc1O` (stereo not drawn) was 215 to 218 °C; that for `CN1CCN(CC2CCN(c3ncc4ncnc(Nc5ccc(F)c(Cl)c5)c4n3)CC2)CC1` was 138 to 140 °C. The result for `CCOc1nc2ccccc2nc1NC(=O)N1CCN(c2cccc(C)c2C)CC1` reads 108 to 110 °C; that for `CC(=O)Nc1ccc2oc(-c3ccccc3)c(O)c(=O)c2c1`, 241 to 242 °C. The result for `C=CCOc1ccccc1C=NNC(=N)N` reads 124 °C; that for `COc1ccc(-c2cc(=O)n(Cc3cc(OC)c(OC)c(OC)c3)nc2-c2ccc(OC)cc2)cc1`, 138 to 139 °C.
